Assay results: patent US20100093820A1, “CRYSTALLINE PYRAZOLES” (PHARMACIA & UPJOHN COMPANY LLC, priority 2004, published 2010)

Tests used:
[1] = Suspension crystallization: relative thermodynamic stability of Forms I and II; assay type: physicochemical; details: mixture of Forms I and II suspended in toluene, stirred at least three days, solid identified by PXRD
Procedure: Methods. Suspension crystallization. The relative stability relationship between Forms I and II at a specific temperature was bracketed by suspending a mixture of the two polymorphs in toluene in a closed glass vial that was equilibrated at the temperature of interest. Excess solid of one polymorph was first added to saturate toluene in a glass vial at the chosen temperature. The other polymorph was added at least half an hour later. The suspension was stirred continuously for at least three days. A portion of the suspension was withdrawn and immediately filtered. The filtered solid was analyzed using PXRD to identify the equilibrium solid at that temperature. […] By repeating the experiment at different temperatures, the Tt was bracketed.
Suspension Crystallization. […] The Tt must be approximately 70 to about 73° C.

[2] = Relative stability of crystal forms at ambient temperature and pressure; assay type: physicochemical
Text: has been described in U.S. Pat. Nos. 5,466,823 and 5,521,207. The description describes a synthesis of the compound, but is silent with respect to the crystalline form which is obtained. […] The forms can be distinguished by their PXRD (powder X-ray diffraction) patterns.

Compound: NS(=O)(=O)c1ccc(-n2nc(C(F)(F)F)cc2-c2ccc(F)cc2)cc1 [Form I, 4-[5-(4-fluorophenyl)-3-(trifluoromethyl)-1H-pyrazol-1-yl]-benzenesulfonamide]
- temperature at which the form is thermodynamically more stable (equilibrium solid phase) [1]: ≤ 71.0 °C

Compound: NS(=O)(=O)c1ccc(-n2nc(C(F)(F)F)cc2-c2ccc(F)cc2)cc1 [Form II, 4-[5-(4-fluorophenyl)-3-(trifluoromethyl)-1H-pyrazol-1-yl]-benzenesulfonamide]
- stability of crystal form relative to the other form [2]: unstable with respect to another form, Form I
- temperature at which the form is thermodynamically more stable (equilibrium solid phase) [1]: ≥ 71.5 °C
